{"source": "paper PMC4062305", "about": "(Journal of medicinal chemistry, 2013)", "target": "T1, FAAH activity in brain (Mus musculus, UniProt O08914)", "T1 sequence (O08914 1-579)": "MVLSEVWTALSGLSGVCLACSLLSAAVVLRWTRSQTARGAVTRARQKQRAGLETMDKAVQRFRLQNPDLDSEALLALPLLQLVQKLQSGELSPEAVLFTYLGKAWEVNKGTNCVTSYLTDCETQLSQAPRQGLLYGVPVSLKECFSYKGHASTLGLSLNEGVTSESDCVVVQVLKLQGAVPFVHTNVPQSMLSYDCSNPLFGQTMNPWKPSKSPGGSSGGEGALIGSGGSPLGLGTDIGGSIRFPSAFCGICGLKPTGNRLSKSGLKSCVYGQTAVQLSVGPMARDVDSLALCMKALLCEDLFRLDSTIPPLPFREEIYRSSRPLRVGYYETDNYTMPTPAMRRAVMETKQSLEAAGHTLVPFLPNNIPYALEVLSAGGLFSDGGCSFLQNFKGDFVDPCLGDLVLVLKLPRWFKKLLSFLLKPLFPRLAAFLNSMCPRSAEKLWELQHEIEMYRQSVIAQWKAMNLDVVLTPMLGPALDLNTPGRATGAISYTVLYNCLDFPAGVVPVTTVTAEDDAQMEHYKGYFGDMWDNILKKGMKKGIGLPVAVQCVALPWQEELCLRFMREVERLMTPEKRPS", "experiment": "Ex vivo FAAH inhibition in brain after systemic administration", "parameters": "species or system Swiss Webster mice", "conditions": "s.c. doses up to 40 or 75 mg/kg, 1 h after injection", "note": "Entries after “also recorded” stand apart in the source; their conditions may differ."}
{"smiles": "CC(=O)Nc1cccc(-c2cc(OC(=O)NC3CCCCC3)ccc2O)c1", "note": "[7c, Cyclohexylcarbamic Acid 3’-Acetamido-6-hydroxybiphenyl-3-yl Ester]", "values": [{"measurement": "Access to the brain in dose-exploration study (brain FAAH inhibition)", "result": "significantly higher brain penetration relative to 3, 7d and 7e at all doses tested"}]}
{"smiles": "NC(=O)c1cccc(-c2cc(OC(=O)NC3CCCCC3)ccc2C(=O)O)c1", "note": "[compound 29, Cyclohexylcarbamic Acid 3’-Carbamoyl-6-carboxybiphenyl-3-yl Ester]", "values": [{"measurement": "Access to the brain in dose-exploration study (brain FAAH inhibition)", "result": "failed to enter the brain even at the highest dose tested; also recorded: did not enter the brain, even at the highest dosage tested"}]}
{"smiles": "N.NC(=O)c1cccc(-c2cc(OC(=O)NC3CCCCC3)ccc2OS(=O)(=O)O)c1", "note": "[compound 30, Ammonium Cyclohexylcarbamic Acid 3’-Carbamoyl-6-sulfatebiphenyl-3-yl Ester]", "values": [{"measurement": "Access to the brain in dose-exploration study (brain FAAH inhibition)", "result": "did not enter the brain, even at the highest dosage tested"}]}
